Assays:
[1] = test system: Human embryonic stem cells H9p33; assay: Cell releasing enzyme panel: passage of hES cell clusters as single cells, recovered cells counted with trypan blue; assay type: cell-based; settings: for CELL NUMBER: recovered cells/well after three days on MATRIGEL, reseeded at 200,000 cells/well (collagenase: clusters, 30 minute incubation, 1:5 dilution)
Procedure: Human embryonic stem cells H9p33 cells grown in clusters in a 6 well dish were incubated with the following enzymes; TrypLE™ Express (stable tryspin-like enzyme (Invitrogen (Carlsbad, Calif.)), TrypLE™ Select (animal origin-free trypsin-like enzyme Invitrogen (Carlsbad, Calif.)), trypsin/EDTA (0.05%), or trypsin (0.25%), for two minutes at 36° C. All enzymes released the cells within two minutes except trypsin. Release with trypsin was achieved after five minutes at 36° C. Cells were reseeded at 200,000 cells/well into a 6 well plate coated with MATRIGEL™ and allowed to expand for three days. Human embryonic stem cells were also passed as clusters with collagenase (30 minute incubation) and reseeded at a 1:5 dilution on MATRIGEL™-coated wells, similar to the counted TrypLE™ Express cells. After three days, the hESC were released by a five minute incubation with TrypLE™ Express. Cells were incubated with 0.01% trypan blue and then counted (Table 1). Cell viability immediately after release was greater than 98% for all enzymes tested. Passage of human embryonic stem cells with collagenase is the standard passaging method. […] TrypLE™ Select and TrypLE™ Express were the best enzymes evaluated and were further tested in a time course experiment, Example 3.

H1 passage 37 hES cells = assay: Passage of hES cells directly from MEF feeders to MATRIGEL with enzymes; assay type: cell-based, human
Procedure: In an effort to move to a feeder free culture of hES cells from a feeder based culture, H1 passage 37 hES cells that had been supported by a MEF feeder layer in hESC media and grown for 5 days on 10 cm^2 wells of 6 well plates were passaged. The cells were passaged with either TrypLE™, Accutase™, or 1 mg/ml of collagenase.
Before adding enzyme to the cells, the spent media was aspirated, 1 ml PBS (no Ca^2+, or Mg^2+) was added to each well, was aspirated again, and then 1 ml of room temperature enzyme (collagenase, Accutase™, or TrypLE™) was added. Accutase™ or TrypLE™ were used at stock concentration after reaching room temperature. Collagenase was removed from −80° C. freezer, thawed, mixed with 9 ml DMEM/F12, sterile filtered, and allowed to reach room temperature before use.
The cells were incubated in enzyme at 37° C. for 10 min. […] One ml of 2% Probumin in DMEM-F12 was added to each well and the combined total volume in the well was transferred to a 50 ml sterile conical tube, making sure to lift and suspend as many cells as possible.
The cells were centrifuged for 5 minutes at 200×g followed by an additional wash with 2% Probumin and centrifugation for 5 minutes at 200×g. Cell were then resuspended in MEF conditioned media and plated at a 1 to 3.5 ratio onto MATRIGEL™ (1:30 dilution in DMEM) coated T25 flasks, and placed in a 37° C., 5% CO2, humidified incubator.
Cell number was calculated by counting with an Improved Neubauer hemocytomer. […] Given a 1 to 3.5 split ratio, we plated the Accutase treated cells at a seeding density of 2.72 million cells/T25flask or 108,000 cells/cm^2, the TrypLE™ treated cells at a seeding density 2.65 million cells/T25flask or 105,000 cells/cm^2. It is assume that Collagenase treated wells were seeded at a similar density (105,000 to 108,000 cells/cm^2), since there was no appreciable difference in hES density from well to well before enzyme treatment. An additional flask was plated with Collagenase lifted cells for counting purposes at the next passage.
Cells were maintained for 4 days with daily changes of MEF conditioned media supplemented with […] of bFGF. After 4 days in culture the cultures were confluent, and the single cell treated hES cells formed monolayers of hES cells with occasional pockets of fibroblasts, while the cluster passaged hES cells formed large colony style clusters of hES cells (FIG. 13). These cells were then passaged again.
As previously described, the cells were incubated in enzyme at 37° C. for 10 min. […] The additional collagenase flask was lifted with Accutase™. The single cells were then with an Improved Neubauer hemocytometer.
Two ml of 2% Probumin in DMEM-F12 was then added to each flask after enzyme incubation, the total volume (˜4 ml) from the flask was pipetted up and down 5-10 times in order to suspend as many cells as possible. The suspension was then transferred to a 50 ml conical tube and centrifuged for 5 min at 200×g. Cells were then resuspended in MEF conditioned media supplemented with […] of bFGF, and then plated to T25 flasks precoated with 1:30 MATRIGEL™ at a ratio of 1:4.
Given that the cells were passaged at a 1:4 ratio, the cells were plated at a density of 58,000 cell/cm^2 for Accutase™ passage, 51,000 cell/cm^2 for TrypLE™ passage, and 35,000 cell/cm^2.
Cells were then grown for an additional 6 days, with daily media change of MEF conditioned media supplemented with 16 ng/ml of bFGF.

hES H9scp18 = assay: Definitive endoderm differentiation of hES single cells in 96 well plates, IN Cell 1000 cell number and Sox17 staining; assay type: cell-based, human; settings: 10 ng/ml Wnt3a, with 100 ng/ml Activin A, 0.5% FBS, two days; 40 wells
Procedure: hES H9scp18 were seeded into Packard View 96-well plates (Perkin-Elmer) coated with 1:30 growth factor reduced MATRIGEL™ at a density of 14,000 cells/cm^2. The cells were grown for three to four days in MEF conditioned medium and then treated using a DE differentiation protocol. A subset of 40 wells was treated with a standard protocol (10 ng/ml Wnt3a, 100 ng/ml Activin A, and 0.5% FBS in DMEM:F12 for two days). A second subset of 40 wells was treated with the GSK3b inhibitor IX (100 nM; EMD Chemicals, La Jolla, Calif.) instead of Wnt3a. This was followed by treatment for both subsets for three days with 100 ng/ml Activin A and 2% FBS in DMEM:F12. At the end of culture, cells were fixed with 4% paraformaldehyde at room temperature for 20 minutes, washed three times with PBS, and stored in 100 ul PBS overnight. Cells were permeabilized with 0.5% Triton X-100 (Sigma-Aldrich), either at room temperature for 20 minutes or at 4° C. for five minutes, then washed three times with PBS and blocked with 4% chicken serum (Invitrogen-Gibco, Carlesbad, Calif.) in PBS for 30 minutes at room temperature. […]

[2] = T25 flask on 1:30 MATRIGEL, MEF conditioned media

| Molecule | time to release the cells ([1]; 36° C.) | recovered cell counts / maintaining cell attachment/growth (in words) ([1]; after three days culture, compared with collagenase) | CELL NUMBER [1] | density after four days in culture (H1 passage 37 hES cells; [2]) | density after four days in culture, cells total (H1 passage 37 hES cells; [2]) | growth and morphology after two passages (H1 passage 37 hES cells; additional 6 days on MATRIGEL after second passage) | lifting of cells from the dish (H1 passage 37 hES cells; first passage from MEF feeders, 10 min at 37° C.) | density of lifted cells (H1 passage 37 hES cells; first passage from MEF feeders, hemocytometer count) | lifting of cells from plastic and MATRIGEL (H1 passage 37 hES cells; second passage, 10-minute treatment at 37° C.) | number of cell nuclei per well (hES H9scp18) |
| --- | --- | --- | --- | --- | --- | --- | --- | --- | --- | --- |
| TRYPSIN | five | significantly less effective at maintaining cell attachment/growth | 0.1 10^5 |  |  |  |  |  |  |  |
| Collagenase |  |  | 3.5 10^5 | 138,000 cell/cm^2 | 3.45 million cells total | form large colonies of dense and homogeneous cells | did not lift cells | not countable by hemocytometer | did not lift cells |  |
| Wnt3a: Wnt3a (R&D Systems), 10 ng/ml in the definitive endoderm protocol (protein, UniProt P56704 19-352, looked up) Protein Wnt-3a: SYPIWWSLAVGPQYSSLGSQPILCASIPGLVPKQLRFCRNYVEIMPSVAEGIKIGIQECQHQFRGRRWNCTTVHDSLAIFGPVLDKATRESAFVHAIASAGVAFAVTRSCAEGTAAICGCSSRHQGSPGKGWKWGGCSEDIEFGGMVSREFADARENRPDARSAMNRHNNEAGRQAIASHMHLKCKCHGLSGSCEVKTCWWSQPDFRAIGDFLKDKYDSASEMVVEKHRESRGWVETLRPRYTYFKVPTERDLVYYEASPNFCEPNPETGSFGTRDRTCNVSSHGIDGCDLLCCGRGHNARAERRREKCRCVFHWCCYVSCQECTRVYDVHTCK |  |  |  |  |  |  |  |  |  | highest number of cell nuclei per well with little variability between wells |

Reference: patent US10316293B2, “Methods for producing single pluripotent stem cells and differentiation thereof” (LifeScan, Inc., priority 2007, dated 2019)
